Test results: patent US20140093588A1 (Fred Hutchinson Cancer Research Center, priority 2006, published 2014)

Assays:
[1] = cited from earlier work
[2] = test system: LPS-induced IL-1 and TNF production; assay: Bacterial lipopolysaccharide endotoxemia in mice, IL-1β and TNFα plasma levels by ELISA; assay type: in vivo, C57/BI6 mice; details: Tin-protoporphyrin IX 6 mg/kg ip, 30 min before Alzet H2S treatment
Description: Four groups of C57/BI6 mice were subjected to bacterial lipopolysaccharide (5 mg/kg ip). Three groups received H2S treatment (0.2 mg/kg/hr, 4 hrs), and a control group received saline using Alzet osmotic minipumps 30 minutes prior to the induction of endotoxemia (n=7−10/group) in both cases. The effect of the heme oxygenase inhibitor tin-protoporphyrin IX (6 mg/kg, ip, 30 min earlier to Alzet treatment) was also examined in two groups. After 4 hours, the animals were anesthetized using pentobarbital (60 mg/kg ip) and blood samples were taken. IL-1β and TNFα plasma levels were measured using a commercially available ELISA kit (R&D Systems).

Murine J774 macrophages = assay: Cell viability (MTT reduction) of macrophages treated with GSNO or ONOO— after sulfide pretreatment; assay type: cell-based; details: H2S tested on cells to define the highest tested concentration that would reduce viability
Description: Cells were cultured in 96-well plates until cells reached confluence essentially as described in C.
Cell respiration, an indicator of cell viability, was assessed by the mitochondrial-dependent reduction of MTT to formazen (Gross and Levi, 1992). Cells in 96-well plates were incubated at 37° C. with MTT (0.2 mg/ml for 60 min). Culture medium was removed by aspiration, and the cells were solubilized in DMSO. The extent of reduction of MTT to formazan within cells was quantitated by OD550 measurement.
H2S was tested on cells to define the highest tested concentration that would reduce viability. […] Following pretreatment, cells were treated with GSNO (1 mM, 3 mM, or 10 mM). Cell viability was measured at three hours.
Following pretreatment, ONOO— was added at concentrations of 0.3 mM, 0.6 mM, or 1 mM. Cell viability was measured at three hours.
Three hours after treatment, cell viability was measured.
In a related experiment, Murine J774 macrophages were grown until confluency in 96 well plates. Cells were pretreated with H2S (30 mM, 60 mM, 100 mM, 1 mM) for 30 minutes or 24 hours, then cells were incubated with GSNO or ONOO— for 3 hours. GSNO was used in 1 mM and 3 mM concentrations, while ONOO— was used in 300 mM concentration. Following treatment, cells were incubated for 20 minutes with fresh media containing 0.05% MTT. […] Optical density was measured at 550 nm.

[3] = at STP; cited from earlier work

## O=NOO [peroxynitrite]
[1]
  half-life: ~1 s

## C=Cc1c2[n-]c(c1C)/C=c1\[n-]/c(c(C)c1C=C)=C\c1[n-]c(c(CCC(=O)O)c1C)C=c1[n-]/c(c(C)c1CCC(=O)O)=C\2.[Sn+4] [Tin-protoporphyrin IX, tin-protoporphyrin IX]
[2]
  effect of H2S on IL-1 after pretreatment with the heme oxygenase inhibitor: attenuated

## S [H2S, hydrogen sulfide]
Murine J774 macrophages
  concentration that may confer a protective effect: 1 mM

## [N]=O [NO, nitric oxide]
[3]
  soluble in water up to a concentration: about 2 mM
